Measured values: patent US9321782B2, “Process for preparation of novel 42-O-(heteroalkoxyalkyl) rapamicin compounds with anti-proliferative properties” (MERIL LIFE SCIENCES PVT. LTD., priority 2010, dated 2016)
Where “and” joins values, the source holds several entries; their conditions need not be identical. Identical values can stand only once.

Assays:
[1] = Stability analysis (HPLC purity on storage) without BHT at various temperatures; format: physicochemical; settings: for Purity (%): without BHT
Description: (§1) To check the purity of the 42-O-(heteroalkoxyalkyl) rapamycin compounds the following condition was followed by using High Performance Liquid Chromatography, Phenomenex Synergi Hydro-RP 80a (250×4.6 ) mm, 4 micron column. The mobile phase was 65:15:20 methanol:acetonitile:water mixture. The detector was set at 276 nm and the flow rate was adjusted to 1.5 mL/min. Column temperature was 40° C. 2.0 μg of 42-O-(heteroalkoxyalkyl) rapamycin compounds was injected onto the column in a volume of 5.0 μL methanol with run time of 50 min.
The purity loss was higher at increased temperature, but there was no apparent change in the impurity profile. Table 2A presents the purity of various 42-O-(heteroalkoxyalkyl) rapamycin compounds at different time intervals and temperature conditions.

[2] = Stability analysis (HPLC purity on storage) with various concentrations of BHT at 40° C.; format: physicochemical; settings: sealed container
Description: as §1
The inventors have also conducted the stability study of various 42-O-(heteroalkoxyalkyl) rapamycin compounds as mentioned above using various BHT concentrations. The study was conducted at 40° C. temperature in sealed container for 8 weeks.
42-O-(heteroalkoxyalkyl) rapamycin compounds obtained as per procedure described in Example 1 are respectively added with anti-oxidant, namely Butylated Hydroxytoluene (or BHT), at a concentration of 0.1%, 0.2%, 0.5%, and 1.0% (w/w) based on 100% (w/w) of 42-O-(heteroalkoxyalkyl) rapamycin compounds in sealed container to study the stability at 40° C. temperature. […] The purity data with the addition of different amounts of anti-oxidant as added to 42-O-(tetrahydrofuran-3-yl) rapamycin compound, 42-O-(oxetan-3-yl) rapamycin compound and 42-O-(tetrahydropyran-3-yl) rapamycin compound checked at different time intervals are summarized in Table 2B as below mentioned.

[3] = system: L-929 (ATCC cell lines CCL-1, NCTC clone 929) Mus musculus mouse fibroblast cells; assay: In-vitro cytotoxicity test by extraction method; format: cell-based; settings: extract in contact with L-929 cells for 48 hours
Description: In-vitro assessment was done to check the cytotoxic or necrotic potential of the 42-O-(tetrahydrofuran-3-yl) rapamycin and 42-O-(oxetan-3-yl) rapamycin compounds by extraction method. In this study extracts of test substance were kept in contact with a multiple culture of L-929 (ATCC cell lines CCL-1, NCTC clone 929) Mus musculus mouse fibroblast cells for 48 hours. The cells were examined microscopically to assess the changes for its general morphology, vacuolization, detachment, cell lysis and membrane integrity.

rabbit blood [4] = assay: In-vitro haemolysis test; format: cell-based; settings: for Haemolytic Index, Mean ± S. D.: mean of three test extracts, rabbit blood, 4 hrs
Description: Haemolysis test was conducted on rabbit blood by in-vitro method to check the haemolytic effect of 42-O-(tetrahydrofuran-3-yl) rapamycin (Merilimus-1) compound and 42-O-(oxetan-3-yl) rapamycin (Merilimus-2) compound. In this study the extracts of the test substances in triplicate were kept in contact with rabbit blood and incubated for 4 hrs. The concentration of plasma haemoglobin liberated in supernatant was calculated by comparing with absorbance of the standard solution in a spectrophotometer at 540 nm.

rabbit blood [5] = assay: Haemocompatibility test (thrombosis, coagulation, platelet count, leucocyte count); format: cell-based
Description: Haemocompatibility test is conducted to evaluate biological safety of the blood contacting 42-O-([…]) rapamycin and 42-O-(oxetan-3-yl) rapamycin compounds for the medical device. The interaction of test substance with rabbit blood was checked for thrombosis, coagulation, platelet count and leucocyte count.

[6] = system: human aorta smooth muscle cell cultures (hAoSMCs); assay: In-vitro anti-proliferative potency, BrdU assay, human smooth muscle cells; format: cell-based; settings: BrdU incorporation, over 5 orders of magnitude concentration, compared with rapamycin
From the text: (§2) In-vitro assessment of relative anti-proliferative effect of novel mTOR inhibitors 42-O-(oxetan-3-yl) rapamycin compound and 42-O-(tetrahydrofuran-3-yl) rapamycin compound with rapamycin was done on human and rabbit smooth muscle cell culture models. In which, human aorta and rabbit illiac artery smooth muscle cell cultures were subjected to increasing doses of 42-O-(oxetan-3-yl) rapamycin compound 42-O-(tetrahydrofuran-3-yl) rapamycin compound and rapamycin over 5 orders of magnitude concentration in the cell culture medium. The ability of the cell culture to reproduce was assessed after drug exposure by addition of a BromodeoxyUridine (BrdU) coloured reagent which causes a colour change in the surviving cells. The extent of colour development was quantified at 450 nm wavelength using a spectrophotometer microplate reader (BMG Labtech, FLUOstar OPTIMA). […] On the contrary, lower OD values reflect less incorporation on BrdU and a shift towards cell inhibition. Growth inhibition was calculated by subtracting positive control OD values, which represent 100% uninhibited growth.

[7] = system: rabbit illiac artery smooth muscle cell cultures (RbIASMCs); assay: In-vitro anti-proliferative potency, BrdU assay, rabbit smooth muscle cells; format: cell-based; settings: BrdU incorporation, over 5 orders of magnitude concentration, compared with rapamycin
From the text: as §2

[8] = test group, individual rabbits No. 1-3

COC1CC(C[C@H](C)[C@@H]2CC(=O)[C@H](C)/C=C(\C)C(O)[C@@H](OC)C(=O)[C@H](C)C[C@H](C)/C=C/C=C/C=C(\C)[C@@H](OC)C[C@@H]3CC[C@@H](C)[C@@](O)(O3)C(=O)C(=O)N3CCCC[C@H]3C(=O)O2)CCC1OC1CCOC1 (some centres unmarked) [Merilimus-1, 42-O-(tetrahydrofuran-3-yl) rapamycin]
Stability (in words) ([1]; purified compounds without anti-oxidant): more thermally stable
Purity (%) ([1]; 5° C. (sealed), 00 weeks after synthesis): 98.6%
Purity (%) ([1]; 5° C. (sealed), 02 weeks after synthesis): 97.8%
Purity (%) ([1]; 5° C. (sealed), 04 weeks after synthesis): 97.0%
Purity (%) ([1]; 5° C. (sealed), 08 weeks after synthesis): 96.7%
Purity (%) ([1]; 5° C. (sealed), 12 weeks after synthesis): 96.3%
Purity (%) ([1]; 25° C. (sealed), 00 weeks after synthesis): 98.7%
Purity (%) ([1]; 25° C. (sealed), 02 weeks after synthesis): 97.6%
Purity (%) ([1]; 25° C. (sealed), 04 weeks after synthesis): 96.9%
Purity (%) ([1]; 25° C. (sealed), 08 weeks after synthesis): 96.7%
Purity (%) ([1]; 25° C. (sealed), 12 weeks after synthesis): 94.1%
Purity (%) ([1]; 25° C. (unsealed), 00 weeks after synthesis): 98.4%
Purity (%) ([1]; 25° C. (unsealed), 02 weeks after synthesis): 97.1%
Purity (%) ([1]; 25° C. (unsealed), 04 weeks after synthesis): 96.7%
Purity (%) ([1]; 25° C. (unsealed), 08 weeks after synthesis): 95.2%
Purity (%) ([1]; 25° C. (unsealed), 12 weeks after synthesis): 93.6%
Purity (%) ([1]; 40° C. (sealed), 00 weeks after synthesis): 98.6%
Purity (%) ([1]; 40° C. (sealed), 02 weeks after synthesis): 96.7%
Purity (%) ([1]; 40° C. (sealed), 04 weeks after synthesis): 96.3%
Purity (%) ([1]; 40° C. (sealed), 08 weeks after synthesis): 94.7%
Purity (%) ([1]; 40° C. (sealed), 12 weeks after synthesis): 93.5%
Purity (%) ([2]; BHT 0.0% (w/w), 0 week): 98.6%
Purity (%) ([2]; BHT 0.0% (w/w), 2 weeks): 96.7%
Purity (%) ([2]; BHT 0.0% (w/w), 4 weeks): 96.3%
Purity (%) ([2]; BHT 0.0% (w/w), 8 weeks): 94.7%
Purity (%) ([2]; BHT 0.1% (w/w), 0 week): 98.6%
Purity (%) ([2]; BHT 0.1% (w/w), 2 weeks): 98.5%
Purity (%) ([2]; BHT 0.1% (w/w), 4 weeks): 98.5%
Purity (%) ([2]; BHT 0.1% (w/w), 8 weeks): 98.4%
Purity (%) ([2]; BHT 0.2% (w/w), 0 week): 98.5%
Purity (%) ([2]; BHT 0.2% (w/w), 2 weeks): 98.5%
Purity (%) ([2]; BHT 0.2% (w/w), 4 weeks): 98.5%
Purity (%) ([2]; BHT 0.2% (w/w), 8 weeks): 98.4%
Purity (%) ([2]; BHT 0.5% (w/w), 0 week): 98.5%
Purity (%) ([2]; BHT 0.5% (w/w), 2 weeks): 98.4%
Purity (%) ([2]; BHT 0.5% (w/w), 4 weeks): 98.4%
Purity (%) ([2]; BHT 0.5% (w/w), 8 weeks): 98.3%
Purity (%) ([2]; BHT 1.0% (w/w), 0 week): 98.5%
Purity (%) ([2]; BHT 1.0% (w/w), 2 weeks): 98.4%
Purity (%) ([2]; BHT 1.0% (w/w), 4 weeks): 98.4%
Purity (%) ([2]; BHT 1.0% (w/w), 8 weeks): 98.3%
Purity after eight-weeks of storage ([2]; with various concentrations of BHT (concentration not given)): 98.3%
Toxic effect on cells (in words) [3]: did not reveal any toxic effect on cells
Haemolytic Index (rabbit blood [4]; individual test extracts 1-3, rabbit blood, incubated 4 hrs, = Haemoglobin released/Haemoglobin present × 100): 1.4 and 1.7 and 1.9
Haemolytic Index, Mean ± S. D. (rabbit blood [4]): 1.7 ± 0.02
Haemolytic Index, Mean ± S. D. (rabbit blood [4]; listed as 42-O-(tetrahydrofuran-3-yl) rapamycin): 1.7
Haemolytic nature (in words) (rabbit blood [4]; on the basis of haemolytic index): non-haemolytic
Haemocompatibility (in words) (rabbit blood [5]; all haematological findings compared to control): haemocompatible
Coagulation (PTT in sec.) (rabbit blood [5]; [8]): 36 sec. (2×) and 39 sec.
Differential leucocyte count: Basophile % (rabbit blood [5]; [8]): 00%
Differential leucocyte count: Eosinophil % (rabbit blood [5]; [8]): 01%
Differential leucocyte count: Lymphocyte % (rabbit blood [5]; [8]): 43% and 50% (2×)
Differential leucocyte count: Monocyte % (rabbit blood [5]; [8]): 01% (2×) and 02%
Differential leucocyte count: Neutrophil % (rabbit blood [5]; [8]): 55% and 47% and 48%
Distribution of cells: Platelets (rabbit blood [5]; [8]): Normal
Distribution of cells: RBC (rabbit blood [5]; [8]): Normal
Distribution of cells: WBC (rabbit blood [5]; [8]): Normal
Leucocyte count (rabbit blood [5]; [8]): 7.3 Thousand/cmm and 6.8 Thousand/cmm and 7.4 Thousand/cmm
Platelet count (rabbit blood [5]; [8]): 4.9 lakhs/cmm and 4.6 lakhs/cmm and 4.5 lakhs/cmm
Thrombosis (rabbit blood [5]; [8]): Nil
Growth suppression of smooth muscle cells (in words) [6]: more effectively inhibited growth of smooth muscle cells than rapamycin
Growth suppression of smooth muscle cells (in words) [7]: more effectively inhibited growth of smooth muscle cells than rapamycin
